Experiments:
[1] = test system: Human mast cells (CHMC cells); experiment: Tryptase release assay (mast cell degranulation induced by anti-IgG FcγR cross-linking); format: cell-based; conditions: IC50 of tryptase release from human mast cells after anti-IgG stimulation, read-out: LD Tryptase
Protocol: Compounds were assayed for inhibition of mast cell activation induced by FcγR cross-linking by measuring the activity of tryptase released upon degranulation as follows:
Human mast cells were cultured and differentiated from […] progenitor cell as described in U.S. Patent Publication No. 2005-234049, incorporated herein by reference. For example, 65 μl of various concentrations of the compound to be assayed were prepared in MT (137 mM NaCl, 2.7 mM KCl, 1.8 mM CaCl2, 1.0 mM MgCl2, 5.6 mM Glucose, 20 mM Hepes (pH 7.4), 0.1% Bovine Serum Albumin, (Sigma A4503)) containing 2% MeOH and 1% DMSO, or control buffer were added to duplicate 96-well V-bottom plates. Pelleted and resuspended (in warm MT) CHMC cells (65 μl) were added to each 96-well plate, mixed and incubated for 1 hour at 37° C. 25 μl of 6× anti-IgG Rabbit anti-human IgG, Affinity purified (Bethyl Laboratories Cat No. A80-105A3) final concentration 1 μg/ml, was added to the test wells. MT (25 μl) was added to control wells. After a 60-minute incubation at 37° C., cells and cell debris were pelleted by centrifugation at 1000 rpm for 10 min and tryptase and leukotriene C4 levels were measured.
To measure tryptase levels, 25 μl of supernatant from each well was transferred to a fresh 96-well black bottom plate, to which 100 μl of fresh tryptase substrate solution [(Z-Ala-Lys-Arg-AMC2TFA; Enzyme Systems Products, #AMC-246)] 1:2000 in tryptase assay buffer [0.1 M Hepes (pH 7.5), 10% w/v Glycerol, 10 μM Heparin (Sigma H-4898) 0.01% NaN3] was added. After 30 minute incubation at room temperature, the optical density of the plates is measured at 355 nm/460 nm on a spectrophotometric plate reader. Table 2 provides the IC50 values.

Syk kinase = target: T1, Syk kinase (Homo sapiens, UniProt P43405); experiment: ELISA-based Syk kinase assay (phosphorylation of HS1 peptide substrate by isolated Syk kinase); format: biochemical; conditions: IC50 of Syk kinase inhibition; 2 μM ATP, 2 μM peptide substrate
T1 construct: purchased Millipore 14-314
Protocol: Compounds were tested for the ability to inhibit Syk kinase catalyzed phosphorylation of a peptide substrate in an assay with isolated Syk kinase.
An assay was carried out in a Costar white 96 well plate (Fisher Scientific, Cat No. 07-200-591) coated overnight with 0.01 mg/ml Neutravidin (Pierce, 100 μl/well) at 4° C. Neutravidin pre-coated 96 well plates were blocked with 2% BSA in PBST buffer for at least 1 hour before starting the assay at room temperature. Serially diluted compound stock solution containing a subject compound was prepared separately in DMSO solution starting from 300 μM and 2 μl of this diluted compound (3% DMSO final concentration) was added directly to neutravidin coated assay plate containing 55.5 μl/well of kinase reaction buffer composed of 20 mM HEPES, pH 7.4, 5 mM MgCl2, 2 mM MnCl2, 1 mM DTT, 0.01% Tween 20 pre-mixed with ATP and kinase substrate (HS1 peptide). Reaction was initiated by adding of 2.5 μl/well Syk kinase (Millipore, Cat No. 14-314) resulting in a final reaction volume of 60 μl and then the reaction was allowed to continue for 30 minutes at room temperature. Final enzyme reaction conditions were 20 mM HEPES, pH 7.4, 5 mM MgCl2, 2 mM MnCl2, 1 mM DTT, 0.01% Tween 20, 0.25 ng Syk, 2 μM ATP, 2 μM peptide substrate (Biotin-EQEDEPEGDYEEVLE-CONH2, SynPep Corporation). After completing the reaction, assay plate was washed three times with PBST and incubated for 1 hour at room temperature with 100 μl/well of phosphopeptide detection antibody solution prepared by mixing 1-1000 diluted mouse anti-pTyr monoclonal antibody (Cell Signal Technology, Cat No. 9411) and 1-1000 diluted goat HRP-conjugated anti-mouse IgG (Jackson Immunoresearch, Cat. No. 115-035-003). Before developing the plate with supersignal ELISA pico chemiluminescent substrate (Pierce), plate was washed three times again with PBST and were read on a SpectraMax M5 microplate reader (Moleculear Devices).

COc1ccc(Nc2c(-c3ccc(NC(C)=O)cc3)[nH]c3c(C#N)cnn23)cc1OC [Compound 2]
IC50 [1]: < 10 µM | IC50 (Syk kinase): 0.51 to 2.99 µM

CC(=O)Nc1ccc(-c2[nH]c3c(C#N)cnn3c2Nc2cccc(C(F)(F)F)c2)cc1 [Compound 3]
IC50 [1]: 11 to 100 µM | IC50 (Syk kinase): 0.51 to 2.99 µM

COc1ccc2[nH]cc(-c3[nH]c4c(C#N)cnn4c3Nc3ccc(OC)c(OC)c3)c2c1 [Compound 4]
IC50 [1]: < 10 µM | IC50 (Syk kinase): 0.51 to 2.99 µM

COc1ccc(Nc2c(-c3ccc4[nH]ccc4c3)[nH]c3c(C#N)cnn23)cc1OC [Compound 5]
IC50 [1]: < 10 µM | IC50 (Syk kinase): 0.51 to 2.99 µM

COc1ccc(Nc2c(-c3ccc4cc[nH]c4c3)[nH]c3c(C#N)cnn23)cc1OC [Compound 6]
IC50 [1]: < 10 µM | IC50 (Syk kinase): 0.51 to 2.99 µM

COc1ccc(Nc2c(-c3ccc(Oc4ccccc4)cc3)[nH]c3c(C#N)cnn23)cc1OC [Compound 8]
IC50 [1]: < 10 µM | IC50 (Syk kinase): 3 to 25 µM

COC(=O)c1cccc(Nc2c(-c3ccc4c(c3)NC(=O)CO4)[nH]c3c(C#N)cnn23)c1 [Compound 10]
IC50 [1]: 11 to 100 µM | IC50 (Syk kinase): 0.51 to 2.99 µM

COc1cccc(Nc2c(-c3cc(OC)c(OC)c(OC)c3)[nH]c3c(C#N)cnn23)c1 [Compound 14]
IC50 [1]: < 10 µM | IC50 (Syk kinase): 0.51 to 2.99 µM

COc1cc(-c2[nH]c3c(C#N)cnn3c2Nc2ccc(Br)cc2)cc(OC)c1OC [Compound 23]
IC50 [1]: < 10 µM | IC50 (Syk kinase): 0.51 to 2.99 µM

COc1ccc2c(-c3[nH]c4c(C#N)cnn4c3Nc3ccc(OC)c(OC)c3)c[nH]c2c1 [Compound 24]
IC50 [1]: < 10 µM | IC50 (Syk kinase): 0.51 to 2.99 µM

COc1cc(-c2[nH]c3c(C#N)cnn3c2Nc2ccc(N3CCOCC3)cc2)cc(OC)c1OC [Compound 25]
IC50 [1]: < 10 µM | IC50 (Syk kinase): 0.51 to 2.99 µM

COc1ccc(Nc2c(-c3cc(OC)c(OC)c(OC)c3)[nH]c3c(C#N)cnn23)cc1OC [Compound 28]
IC50 [1]: < 10 µM | IC50 (Syk kinase): < 0.5 µM

COc1cc(-c2[nH]c3c(C#N)cnn3c2Nc2cccc(NC(C)=O)c2)cc(OC)c1OC [Compound 30]
IC50 [1]: < 10 µM | IC50 (Syk kinase): 0.51 to 2.99 µM

COc1ccc(-c2[nH]c3c(C#N)cnn3c2Nc2cccc(NC(C)=O)c2)cc1OC [Compound 32]
IC50 [1]: < 10 µM | IC50 (Syk kinase): 0.51 to 2.99 µM

CSc1ccc(-c2[nH]c3c(C#N)cnn3c2Nc2cccc(NC(C)=O)c2)cc1 [Compound 33]
IC50 [1]: < 10 µM | IC50 (Syk kinase): 0.51 to 2.99 µM

COc1ccc(Nc2c(-c3ccc4c(c3)OCCO4)[nH]c3c(C#N)cnn23)cc1OC [Compound 38]
IC50 [1]: > 5000 µM | IC50 (Syk kinase): 0.51 to 2.99 µM

N#Cc1cnn2c(Nc3ccc(N4CCOCC4)cc3)c(-c3ccc4c(c3)NC(=O)CO4)[nH]c12 [Compound 43]
IC50 [1]: 11 to 100 µM | IC50 (Syk kinase): 3 to 25 µM

COc1cccc(Nc2c(-c3ccc4cc[nH]c4c3)[nH]c3c(C#N)cnn23)c1 [Compound 44]
IC50 [1]: < 10 µM | IC50 (Syk kinase): 3 to 25 µM

N#Cc1cnn2c(Nc3ccc(Br)cc3)c(-c3ccc4c(c3)NC(=O)CO4)[nH]c12 [Compound 45]
IC50 [1]: 101 to 5000 µM | IC50 (Syk kinase): 0.51 to 2.99 µM

CC(=O)Nc1cccc(Nc2c(-c3ccc4cc[nH]c4c3)[nH]c3c(C#N)cnn23)c1 [Compound 47]
IC50 [1]: < 10 µM | IC50 (Syk kinase): 0.51 to 2.99 µM

COc1ccc(Nc2c(-c3ccc(S(C)(=O)=O)cc3)[nH]c3c(C#N)cnn23)cc1OC [Compound 48]
IC50 [1]: < 10 µM | IC50 (Syk kinase): 0.51 to 2.99 µM

COc1cc(-c2[nH]c3c(C#N)cnn3c2Nc2ccc3c(c2)OCCO3)cc(OC)c1OC [Compound 49]
IC50 [1]: < 10 µM | IC50 (Syk kinase): 0.51 to 2.99 µM

N#Cc1cnn2c(Nc3ccc4c(c3)OCCO4)c(-c3ccc4c(c3)NC(=O)CO4)[nH]c12 [Compound 50]
IC50 [1]: > 5000 µM | IC50 (Syk kinase): 0.51 to 2.99 µM

COc1ccc(Nc2c(-c3ccc4c(c3)OCO4)[nH]c3c(C#N)cnn23)cc1OC [Compound 51]
IC50 [1]: < 10 µM | IC50 (Syk kinase): 0.51 to 2.99 µM

COc1ccc(-c2[nH]c3c(C#N)cnn3c2Nc2ccc(OC)c(OC)c2)cc1F [Compound 52]
IC50 [1]: > 5000 µM | IC50 (Syk kinase): 3 to 25 µM

COc1cc(-c2[nH]c3c(C#N)cnn3c2Nc2ccc(F)c(F)c2)cc(OC)c1OC [Compound 64]
IC50 [1]: < 10 µM | IC50 (Syk kinase): 0.51 to 2.99 µM

COc1cc(-c2[nH]c3c(C#N)cnn3c2Nc2ccc(CNC(C)=O)cc2)cc(OC)c1OC [Compound 72]
IC50 [1]: < 10 µM | IC50 (Syk kinase): 0.51 to 2.99 µM

COC(=O)COc1ccc(-c2[nH]c3c(C#N)cnn3c2Nc2ccc3c(c2)OCCO3)cc1OC [Compound 85]
IC50 [1]: < 10 µM | IC50 (Syk kinase): < 0.5 µM

COc1cc(Nc2c(-c3cc(OC)c(OC)c(OC)c3)[nH]c3c(C#N)cnn23)ccc1F [Compound 87]
IC50 [1]: < 10 µM | IC50 (Syk kinase): < 0.5 µM

N#Cc1cnn2c(Nc3ccc(Br)cc3)c(-c3ccc(C(N)=O)cc3)[nH]c12 [Compound 98]
IC50 [1]: 101 to 5000 µM | IC50 (Syk kinase): 0.51 to 2.99 µM

COc1ccc(Nc2c(-c3cc(O)c(OC)c(OC)c3)[nH]c3c(C#N)cnn23)cc1OC [Compound 100]
IC50 [1]: < 10 µM | IC50 (Syk kinase): < 0.5 µM

COc1ccc(Nc2c(-c3ccc(OCCO)c(OC)c3)[nH]c3c(C#N)cnn23)cc1OC [Compound 101]
IC50 [1]: < 10 µM | IC50 (Syk kinase): 0.51 to 2.99 µM

COc1ccc(Nc2c(-c3ccc(C(N)=O)cc3)[nH]c3c(C#N)cnn23)cc1OC [Compound 103]
IC50 [1]: 11 to 100 µM | IC50 (Syk kinase): < 0.5 µM

COc1ccc(Nc2c(-c3ccc(N4CCOCC4)cc3)[nH]c3c(C#N)cnn23)cc1OC [Compound 104]
IC50 [1]: < 10 µM | IC50 (Syk kinase): 0.51 to 2.99 µM

COc1ccc(Nc2c(-c3cccc(N4CCOCC4)c3)[nH]c3c(C#N)cnn23)cc1OC [Compound 105]
IC50 [1]: 11 to 100 µM | IC50 (Syk kinase): 0.51 to 2.99 µM

COc1ccc(Nc2c(-c3ccc(OC)c(OC4CCCC4)c3)[nH]c3c(C#N)cnn23)cc1OC [Compound 106]
IC50 [1]: < 10 µM | IC50 (Syk kinase): < 0.5 µM

COc1ccc(Nc2c(-c3ccc(OCCN4CCCC4=O)cc3)[nH]c3c(C#N)cnn23)cc1OC [Compound 107]
IC50 [1]: < 10 µM | IC50 (Syk kinase): 0.51 to 2.99 µM

COCCOc1ccc(-c2[nH]c3c(C#N)cnn3c2Nc2ccc(OC)c(OC)c2)cc1OC [Compound 108]
IC50 [1]: < 10 µM | IC50 (Syk kinase): < 0.5 µM

COc1cc(Nc2c(-c3ccc4c(c3)NC(=O)CO4)[nH]c3c(C#N)cnn23)ccc1F [Compound 109]
IC50 [1]: 11 to 100 µM | IC50 (Syk kinase): 0.51 to 2.99 µM

COc1ccc(Nc2c(-c3cccc(O)c3)[nH]c3c(C#N)cnn23)cc1OC [Compound 112]
IC50 [1]: < 10 µM | IC50 (Syk kinase): 0.51 to 2.99 µM

COC(=O)COc1ccc(-c2[nH]c3c(C#N)cnn3c2Nc2ccc(OC)c(OC)c2)cc1 [Compound 113]
IC50 [1]: < 10 µM | IC50 (Syk kinase): 0.51 to 2.99 µM

COc1ccc(Nc2c(-c3cccc(NS(C)(=O)=O)c3)[nH]c3c(C#N)cnn23)cc1OC [Compound 114]
IC50 [1]: < 10 µM | IC50 (Syk kinase): 0.51 to 2.99 µM

COc1cc(Nc2c(-c3ccc(OCCO)c(OC)c3)[nH]c3c(C#N)cnn23)ccc1F [Compound 116]
IC50 [1]: < 10 µM | IC50 (Syk kinase): < 0.5 µM

COc1cc(Nc2c(-c3ccc(C(N)=O)cc3)[nH]c3c(C#N)cnn23)ccc1F [Compound 117]
IC50 [1]: > 5000 µM | IC50 (Syk kinase): 0.51 to 2.99 µM

COc1cc(Nc2c(-c3cc(O)c(OC)c(OC)c3)[nH]c3c(C#N)cnn23)ccc1F [Compound 118]
IC50 [1]: < 10 µM | IC50 (Syk kinase): < 0.5 µM

COc1cc(Nc2c(-c3ccc(OC)c(OC4CCCC4)c3)[nH]c3c(C#N)cnn23)ccc1F [Compound 119]
IC50 [1]: < 10 µM | IC50 (Syk kinase): 0.51 to 2.99 µM

COc1cc(-c2[nH]c3c(C#N)cnn3c2Nc2ccc(F)c(C)c2)cc(OC)c1OC [Compound 120]
IC50 [1]: < 10 µM | IC50 (Syk kinase): 0.51 to 2.99 µM

COCCOc1ccc(-c2[nH]c3c(C#N)cnn3c2Nc2ccc(F)c(OC)c2)cc1OC [Compound 122]
IC50 [1]: < 10 µM | IC50 (Syk kinase): 0.51 to 2.99 µM

From patent US8377945B2, “Small molecule inhibitors of spleen tyrosine kinase (SYK)” (Rigel Pharmaceuticals Inc., priority 2009, dated 2013)
